From patent US20160222056A1, “SUBSTITUTED PHENYLALANINE DERIVATIVES” (BAYER PHARMA AKTIENGESELLSCHAFT, priority 2013, published 2016)
Counter-ions that a name gives are not always drawn. Like-named read-outs stand apart in the source and are kept apart here.

Experiments:
human and animal plasma = test: Anticoagulatory activity: activated partial thromboplastin time (aPTT) in plasma; type: biochemical; settings: in vitro in plasma, C.K. Prest kit, 37° C. for 3 minutes; plasma species of Table B not stated
Method: The anticoagulatory activity of the test substances is determined in vitro in human and animal plasma (for example mouse, rat, rabbit, pig and dog plasma). To this end, blood is drawn off in a mixing ratio of sodium citrate/blood of 1:9 using a 0.11 molar sodium citrate solution as receiver. Immediately after the blood has been drawn off, it is mixed thoroughly and centrifuged at about 4000 g for 15 minutes. The supernatant is pipetted off.
The activated partial thromboplastin time (aPTT) is determined in the presence of varying concentrations of test substance or the corresponding solvent using a commercial test kit (C.K. Prest from Diagnostica Stago). The test compounds are incubated with the plasma and the PTT reagent (cephalin, kaolin) at 37° C. for 3 minutes. Coagulation is then started by addition of 25 mM aqueous calcium chloride, and the time when coagulation occurs is determined. The concentration of test substance which brings about a 1.5-fold extension of the aPTT is determined.

human factor XIa = target: T1, human factor XIa (Homo sapiens, UniProt P03951); test: Measurement of FXIa inhibition (fluorogenic peptide substrate); type: biochemical
T1 construct: purchased Kordia
T1 sequence (P03951 388-625 limits assumed): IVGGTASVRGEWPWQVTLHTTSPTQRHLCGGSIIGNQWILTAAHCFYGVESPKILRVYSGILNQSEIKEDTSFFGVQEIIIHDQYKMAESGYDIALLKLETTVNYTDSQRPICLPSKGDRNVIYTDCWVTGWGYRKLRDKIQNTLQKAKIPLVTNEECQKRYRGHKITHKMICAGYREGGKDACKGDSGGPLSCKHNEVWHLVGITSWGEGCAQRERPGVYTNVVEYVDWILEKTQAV
T1 sequence (P03951 19-387 partner limits assumed): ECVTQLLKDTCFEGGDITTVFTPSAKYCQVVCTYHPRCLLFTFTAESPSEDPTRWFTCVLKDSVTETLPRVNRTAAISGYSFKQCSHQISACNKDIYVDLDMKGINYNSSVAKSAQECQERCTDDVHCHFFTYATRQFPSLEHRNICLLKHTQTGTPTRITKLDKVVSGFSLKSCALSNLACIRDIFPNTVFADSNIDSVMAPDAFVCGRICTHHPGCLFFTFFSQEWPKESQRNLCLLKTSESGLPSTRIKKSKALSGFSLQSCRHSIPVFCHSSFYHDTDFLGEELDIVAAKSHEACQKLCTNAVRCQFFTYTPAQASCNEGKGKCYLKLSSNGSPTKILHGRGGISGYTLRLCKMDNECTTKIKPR
Method: To determine the factor XIa inhibition of the substances according to the invention, a biochemical test system is used which utilizes the reaction of a peptidic factor XIa substrate to determine the enzymatic activity of human factor XIa. Here, factor XIa cleaves from the peptic factor XIa substrate the C-terminal aminomethylcoumarin (AMC), the fluorescence of which is measured. The determinations are carried out in microtitre plates.
Test substances are dissolved in dimethyl sulphoxide and serially diluted in dimethyl sulphoxide (3000 μM to 0.0078 μM; resulting final concentrations in the test: 50 μM to 0.00013 μM). In each case 1 μl of the diluted substance solutions are placed into the wells of white microtitre plates from Greiner (384 wells). Subsequently, the following are added successively: 20 μl of assay buffer (50 mmol/1 Tris buffer pH 7.4; 100 mmol/1 sodium chloride; 5 mmol/1 calcium chloride; 0.1% bovine serum albumin) and 20 μl of factor XIa from Kordia (0.45 nM in assay buffer). After 15 min of incubation, the enzyme reaction is started by addition of 20 μl of the factor XIa substrate Boc-Glu(OBzl)-Ala-Arg-AMC dissolved in assay buffer (10 μM in assay buffer) from Bachem, the mixture is incubated at room temperature (22° C.) for 30 min and fluorescence is then measured (excitation: 360 nm, emission: 460 nm). The measured emissions of the test batches with test substance are compared to those of control batches without test substance (only dimethyl sulphoxide instead of test substance in dimethyl sulphoxide), and the IC50 values are calculated from the concentration/activity relationships.

[1] = human factor XIa from Kordia, substrate Boc-Glu(OBzl)-Ala-Arg-AMC, 30 min at 22° C., read-out: IC50 (FXIa inhibition)

IC50 (human factor XIa; [1]) [nM] | IC50 (human factor XIa) [nM] | Structure (SMILES) | aPTT (concentration of test substance which brings about a 1.5-fold extension of the aPTT) (human and animal plasma) [µmol/L]
0.9 | – | Cc1cc(C(=O)N[C@H]2CC[C@H](N3CCOCC3)CC2)ncc1-c1ccc(C[C@H](NC(=O)[C@H]2CC[C@H](CN)CC2)C(=O)Nc2ccc(-c3nnn[nH]3)cc2)cc1 [Example 13, N-alpha-{[trans-4-(Aminomethyl)cyclohexyl]carbonyl}-4-(4-methyl-6-{[trans-4-(morpholin-4-yl)cyclohexyl]carbamoyl}pyridin-3-yl)-N-[4-(1H-tetrazol-5-yl)phenyl]-L-phenylalaninamide hydrochloride] | 0.08
30 | – | Cc1nc(C(=O)N[C@H]2CCNC2)ccc1-c1ccc(C[C@H](NC(=O)[C@H]2CC[C@H](CN)CC2)C(=O)Nc2ccc3[nH]c(=O)[nH]c3c2)cc1 [Example 14, N-alpha-{[trans-4-(Aminomethyl)cyclohexyl]carbonyl}-4-{2-methyl-6-[(3S)-pyrrolidin-3-ylcarbamoyl]pyridin-3-yl}-N-(2-oxo-2,3-dihydro-1H-benzimidazol-5-yl)-L-phenylalaninamide hydrochloride] | 0.08
3.2 | – | Cc1nc(C(=O)N[C@H]2CCNC2)ccc1-c1ccc(C[C@H](NC(=O)[C@H]2CC[C@H](CN)CC2)C(=O)Nc2ccc(-c3nn[nH]n3)cc2)cc1 [Example 15, N-alpha-{[trans-4-(Aminomethyl)cyclohexyl]carbonyl}-4-{2-methyl-6-[(3S)-pyrrolidin-3-ylcarbamoyl]pyridin-3-yl}-N-[4-(2H-tetrazol-5-yl)phenyl]-L-phenylalaninamide hydrochloride] | 0.1
8.1 | – | Cc1nc(C(=O)NC2C3CNCC32)ccc1-c1ccc(C[C@H](NC(=O)[C@H]2CC[C@H](CN)CC2)C(=O)Nc2ccc(-c3nn[nH]n3)cc2)cc1 (stereo partly drawn) [Example 16, N-alpha-{[trans-4-(Aminomethyl)cyclohexyl]carbonyl}-4-[6-(3-azabicyclo[3.1.0]hex-6-ylcarbamoyl)-2-methylpyridin-3-yl]-N-[4-(2H-tetrazol-5-yl)phenyl]-L-phenylalaninamide hydrochloride] | 0.11
5 | – | Cc1nc(C(=O)N[C@@H]2CCNC2)ccc1-c1ccc(C[C@H](NC(=O)[C@H]2CC[C@H](CN)CC2)C(=O)Nc2ccc(-c3nn[nH]n3)cc2)cc1 [Example 17, N-alpha-{[trans-4-(Aminomethyl)cyclohexyl]carbonyl}-4-{2-methyl-6-[(3R)-pyrrolidin-3-ylcarbamoyl]pyridin-3-yl}-N-[4-(2H-tetrazol-5-yl)phenyl]-L-phenylalaninamide hydrochloride] | 0.12
– | 4.5 | Cc1nc(C(=O)N[C@@H]2CCN[C@H](C)C2)ccc1-c1ccc(C[C@H](NC(=O)[C@H]2CC[C@H](CN)CC2)C(=O)Nc2ccc(-c3nn[nH]n3)cc2)cc1 [Example 18, N-alpha-{[trans-4-(Aminomethyl)cyclohexyl]carbonyl}-4-(2-methyl-6-{[(2R,4R)-2-methylpiperidin-4-yl]carbamoyl}pyridin-3-yl)-N-[4-(2H-tetrazol-5-yl)phenyl]-L-phenylalaninamide hydrochloride] | 0.12
4.5 | – | Cc1nc(C(=O)N[C@@H]2CCN(C)C2)ccc1-c1ccc(C[C@H](NC(=O)[C@H]2CC[C@H](CN)CC2)C(=O)Nc2ccc(-c3nn[nH]n3)cc2)cc1 [Example 19, N-alpha-{[trans-4-(Aminomethyl)cyclohexyl]carbonyl}-4-(2-methyl-6-{[(3R)-1-methylpyrrolidin-3-yl]carbamoyl}pyridin-3-yl)-N-[4-(2H-tetrazol-5-yl)phenyl]-L-phenylalaninamide hydrochloride] | 0.12
3.9 | – | Cc1cc(C(=O)NC2CNCC(F)(F)C2)ncc1-c1ccc(C[C@H](NC(=O)[C@H]2CC[C@H](CN)CC2)C(=O)Nc2ccc(-c3nnn[nH]3)cc2)cc1 (stereo partly drawn) [Example 20, N-alpha-{[trans-4-(Aminomethyl)cyclohexyl]carbonyl}-4-{6-[(5,5-difluoropiperidin-3-yl)carbamoyl]-4-methylpyridin-3-yl}-N-[4-(1H-tetrazol-5-yl)phenyl]-L-phenylalaninamide hydrochloride] | 0.13
1.3 | – | Cc1cc(C(=O)N[C@@H]2CCCNC2=O)ncc1-c1ccc(C[C@H](NC(=O)[C@H]2CC[C@H](CN)CC2)C(=O)Nc2ccc(-c3nnn[nH]3)cc2)cc1 [Example 21, N-alpha-{[trans-4-(Aminomethyl)cyclohexyl]carbonyl}-4-(4-methyl-6-{[(3R)-2-oxopiperidin-3-yl]carbamoyl}pyridin-3-yl)-N-[4-(1H-tetrazol-5-yl)phenyl]-L-phenylalaninamide hydrochloride] | 0.15
2.5 | – | Cc1nc(C(=O)NC2CCC(O)CC2)ccc1-c1ccc(C[C@H](NC(=O)[C@H]2CC[C@H](CN)CC2)C(=O)Nc2ccc(-c3nn[nH]n3)cc2)cc1 (stereo partly drawn) [Example 22, N-alpha-{[trans-4-(Aminomethyl)cyclohexyl]carbonyl}-4-{6-[(4-hydroxycyclohexyl)carbamoyl]-2-methylpyridin-3-yl}-N-[4-(2H-tetrazol-5-yl)phenyl]-L-phenylalaninamide hydrochloride] | 0.16
6 | – | CCN(CC)CCCNC(=O)c1ccc(-c2ccc(C[C@H](NC(=O)[C@H]3CC[C@H](CN)CC3)C(=O)Nc3ccc(-c4nn[nH]n4)cc3)cc2)c(C)n1 [Example 24, N-alpha-{[trans-4-(Aminomethyl)cyclohexyl]carbonyl}-4-(6-{[3-(diethylamino)propyl]-carbamoyl}-2-methylpyridin-3-yl)-N-[4-(2H-tetrazol-5-yl)phenyl]-L-phenylalaninamide hydrochloride] | 0.17
4.2 | – | Cc1cc(C(=O)N2CCNC(C)C2)ncc1-c1ccc(C[C@H](NC(=O)[C@H]2CC[C@H](CN)CC2)C(=O)Nc2ccc(-c3nnn[nH]3)cc2)cc1 (stereo partly drawn) [Example 25, N-alpha-{[trans-4-(Aminomethyl)cyclohexyl]carbonyl}-4-{4-methyl-6-[(3-methylpiperazin-1-yl)carbonyl]pyridin-3-yl}-N-[4-(1H-tetrazol-5-yl)phenyl]-L-phenylalaninamide hydrochloride] | 0.18
1.3 | – | Cc1nc(C(=O)N[C@@H]2CCNC2=O)ccc1-c1ccc(C[C@H](NC(=O)[C@H]2CC[C@H](CN)CC2)C(=O)Nc2ccc(-c3nn[nH]n3)cc2)cc1 [Example 26, N-alpha-{[trans-4-(Aminomethyl)cyclohexyl]carbonyl}-4-(2-methyl-6-{[(3R)-2-oxopyrrolidin-3-yl]carbamoyl}pyridin-3-yl)-N-[4-(2H-tetrazol-5-yl)phenyl]-L-phenylalaninamide hydrochloride] | 0.22
